{"source": "paper PMC2916918", "about": "“Inorganic pyrophosphatase in uncultivable hemotrophic mycoplasmas: identification and properties of the enzyme from Mycoplasma suis” (BMC Microbiology, 2010)", "target": "T1, recombinant M. suis sPPase (rPPase) (Mycoplasma suis, UniProt C4RA40)", "T1 construct": "gene ppa; tetramer (80 kDa) inferred from immunoblot of native cells only", "T1 sequence (C4RA40 1-164)": "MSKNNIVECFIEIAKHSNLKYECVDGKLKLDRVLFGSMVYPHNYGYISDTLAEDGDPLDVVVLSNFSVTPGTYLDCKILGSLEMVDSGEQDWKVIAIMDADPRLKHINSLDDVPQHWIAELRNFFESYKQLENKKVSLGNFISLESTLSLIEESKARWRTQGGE", "assay": "phosphate release, molybdate/ascorbic acid colorimetry (Saheki)", "assay_type": "biochemical", "settings": "50 mM MgCl2, pH 9.0, varied PPi (Figure 4E); standard assay: 5 mM Mg2+, 100 mM Tris pH 7.5, 1 mM PPi, 55 °C"}
{"molecule": "O=P(O)(O)OP(=O)(O)O", "note": "[PPi]", "values": [{"measurement": "phosphate release, molybdate/ascorbic acid colorimetry (Saheki)", "result": "Activity of M. suis rPPase using different PPi concentrations."}]}
